Measured values published in ChEMBL document CHEMBL1129862, “2,3-Substituted 2-azanorbornanes as polar -turn mimetics” (Bioorg Med Chem Lett, 1997).
pIC50: −log10 of the molar value. Where a SMILES comes first, the peptide text is derived from it. Bridges are numbered along the chain shown (N, C = ends). [ ]: non-standard residue; d: D form. Dap = NC[C@H](N)C(=O)O

Columns and labels:
[1] = molecular target: T1, Substance-K receptor (Mesocricetus auratus) (UniProt P51144); assay: Inhibition by the compound against [125I]NKA binding to neurokinin-2 (NK-2) receptor in hamster urinary bladder at 10 uM concentration
T1 sequence (whole entry): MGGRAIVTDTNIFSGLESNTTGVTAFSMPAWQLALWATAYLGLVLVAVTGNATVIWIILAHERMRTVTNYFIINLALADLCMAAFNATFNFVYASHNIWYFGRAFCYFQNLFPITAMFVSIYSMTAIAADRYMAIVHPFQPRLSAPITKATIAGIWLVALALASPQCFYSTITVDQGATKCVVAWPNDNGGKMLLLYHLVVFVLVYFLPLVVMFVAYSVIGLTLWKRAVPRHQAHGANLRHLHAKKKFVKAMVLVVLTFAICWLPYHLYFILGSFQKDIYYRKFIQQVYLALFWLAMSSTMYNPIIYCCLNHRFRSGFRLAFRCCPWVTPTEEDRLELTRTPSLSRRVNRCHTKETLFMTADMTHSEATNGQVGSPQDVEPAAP

Substance-P receptor [2] = molecular target: T2, Substance-P receptor (Homo sapiens, UniProt P25103); assay: Tested for binding affinity against [125I]BH-SP binding to neurokinin-1 (NK-1) receptor in human IM-9 cells; type: cell-based
T2 sequence (P25103 whole entry): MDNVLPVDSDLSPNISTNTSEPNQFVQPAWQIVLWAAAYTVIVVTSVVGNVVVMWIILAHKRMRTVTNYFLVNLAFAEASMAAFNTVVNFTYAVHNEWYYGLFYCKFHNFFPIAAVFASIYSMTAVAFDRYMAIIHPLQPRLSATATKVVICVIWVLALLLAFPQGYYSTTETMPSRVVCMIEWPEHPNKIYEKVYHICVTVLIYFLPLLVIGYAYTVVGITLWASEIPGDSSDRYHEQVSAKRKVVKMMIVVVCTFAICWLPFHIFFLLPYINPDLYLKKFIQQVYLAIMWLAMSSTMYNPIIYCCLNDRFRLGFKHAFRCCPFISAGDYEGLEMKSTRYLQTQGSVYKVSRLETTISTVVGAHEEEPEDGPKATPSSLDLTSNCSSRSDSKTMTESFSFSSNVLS

[3] = molecular target: T3, Neuromedin-K receptor (Homo sapiens) (UniProt P29371); assay: Inhibition by the compound against [125I]-[MePhe]-NKB binding to human Tachykinin receptor 3 in stably expressed CHO cells at 10 uM concentration; type: cell-based
T3 sequence (whole entry): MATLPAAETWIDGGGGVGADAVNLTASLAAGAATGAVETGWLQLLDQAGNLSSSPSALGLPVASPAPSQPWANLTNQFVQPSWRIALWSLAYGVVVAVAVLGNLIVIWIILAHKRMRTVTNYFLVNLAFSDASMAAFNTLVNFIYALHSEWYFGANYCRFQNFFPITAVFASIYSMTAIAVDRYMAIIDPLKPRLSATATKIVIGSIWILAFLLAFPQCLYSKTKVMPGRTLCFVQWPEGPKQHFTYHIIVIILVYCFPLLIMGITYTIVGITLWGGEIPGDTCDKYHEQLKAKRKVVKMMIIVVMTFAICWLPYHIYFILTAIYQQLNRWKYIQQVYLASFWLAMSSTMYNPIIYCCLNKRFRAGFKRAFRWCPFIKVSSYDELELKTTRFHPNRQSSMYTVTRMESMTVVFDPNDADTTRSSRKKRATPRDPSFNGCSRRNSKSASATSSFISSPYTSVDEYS

Neuromedin-K receptor [4] = molecular target: T4, Neuromedin-K receptor (Homo sapiens, UniProt P29371); assay: Tested for binding affinity of compound against [125I][MePhe]-NKB binding to Tachykinin receptor 3 in stably expressed CHO cells; type: cell-based
T4 sequence (P29371 whole entry): T3 sequence (whole entry)

Substance-P receptor [5] = molecular target: T2, Substance-P receptor; assay: Inhibition by the compound against [125I]BH-SP radioligand binding to neurokinin-1 (NK-1) receptor in human IM-9 cells at 10 uM concentration; type: cell-based
Substance-K receptor = molecular target: T5, Substance-K receptor (Mesocricetus auratus, UniProt P51144); assay: Tested for binding affinity of compound against [125I]NKA binding to neurokinin-2 (NK-2) receptor in hamster urinary bladder
T5 sequence (P51144 whole entry): T1 sequence (whole entry)

Neuromedin-K receptor [6] = molecular target: T4, Neuromedin-K receptor; assay: Tested for binding affinity of compound against [125I][MePhe]-NKB binding to human Tachykinin receptor 3 in stably expressed CHO cells; Inactive; type: cell-based

| Compound | inhibition [1] | pIC50 (Substance-P receptor [2]) | inhibition [3] | pIC50 (Neuromedin-K receptor [4]) | inhibition (Substance-P receptor [5]) | pIC50 (Substance-K receptor) | IC50 (Neuromedin-K receptor [6]) |
| --- | --- | --- | --- | --- | --- | --- | --- |
| O=C(NCc1c[nH]c2ccccc12)N1C2CCC(C2)C1Cc1ccccc1 (stereo unspecified) | 31% | 5.17 | 35% |  |  |  |  |
| O=C(Cc1c[nH]c2ccccc12)N1CCC(Cc2ccccc2)C1 (stereo unspecified) | 14% | 5.43 |  |  |  |  |  |
| O=C(NCc1cn(C(=O)OCc2ccccc2)c2ccccc12)N1C2CCC(C2)C1Cc1ccccc1 (stereo unspecified) | 18% |  |  | 5.00 | 55% |  |  |
| CSCC[C@@H]1NC(=O)[C@H](CC(C)C)NC(=O)[C@@H]2CNC(=O)C[C@H](NC1=O)C(=O)N[C@@H](Cc1c[nH]c3ccccc13)C(=O)N[C@@H](Cc1ccccc1)C(=O)N2 (cyclo(DWF[Dap]LM); lactam 1-4) |  | 6.10 |  |  |  | 10.10 | Not Active |
